Legend:
Format in all cases: in vivo
[1] = system: downy bromegrass (Bromus tectorum); test: Test B preemergence, downy bromegrass; conditions: scale 0 to 100
Source text: (§1) Seeds of plant species selected from blackgrass (Alopecurus myosuroides), downy bromegrass (Bromus tectorum), green foxtail (Setaria viridis), Italian ryegrass (Lolium multiflorum), wheat (Triticum aestivum), wild oat (Avena fatua), catchweed bedstraw (Galium aparine), bermudagrass (Cynodon dactylon), Surinam grass (Brachiaria decumbens), cocklebur (Xanthium strumarium), corn (Zea mays), large crabgrass (Digitaria sanguinalis), woolly cupgrass (Eriochloa villosa), giant foxtail (Setaria faberii), goosegrass (Eleusine indica), johnsongrass (Sorghum halepense), kochia (Kochia scoparia), lambsquarters (Chenopodium album), morningglory (Ipomoea coccinea), nightshade (eastern black nightshade, Solanum ptycanthum), yellow nutsedge (Cyperus esculentus), pigweed (Amaranthus retroflexus), ragweed (common ragweed, Ambrosia elatior), soybean (Glycine max), sunflower (common oilseed sunflower, Helianthus annuus), Russian thistle (Salsola kali), and velvetleaf (Abutilon theophrasti) were planted into a blend of loam soil and sand and treated preemergence with test compounds formulated in a non-phytotoxic solvent mixture which included a surfactant. Treated plants and controls were maintained in a greenhouse for 13 to 15 days, after which time all species were compared to controls and visually evaluated. Plant response ratings, summarized in Table B, are based on a scale of 0 to 100 where 0 is no effect and 100 is complete control. A dash (-) response means no test result.

[2] = system: velvetleaf (Abutilon theophrasti); test: Test A postemergence, velvetleaf; conditions: 0 to 100 scale (0 no effect, 100 complete control)
Summary of the method: (§2)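 Scores reflect visual plant injury on a 0 (no effect) to 100 (complete control) scale, assessed about ten days after application in the greenhouse. Compounds were delivered in a non-phytotoxic solvent blend with surfactant, either preemergence to soil or postemergence at one- to two-leaf stage.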

corn (Zea mays) [3] = test: Test B preemergence, corn; conditions: scale 0 to 100
Source text: as §1

[4] = system: barnyardgrass (Echinochloa crus-galli); test: Test A postemergence, barnyardgrass; conditions: 0 to 100 scale (0 no effect, 100 complete control)
Summary of the method: as §2

[5] = system: wheat (Triticum aestivum); test: Test A postemergence, wheat; conditions: 0 to 100 scale (0 no effect, 100 complete control)
Summary of the method: as §2

[6] = system: pigweed (Amaranthus retroflexus); test: Test A postemergence, pigweed; conditions: 0 to 100 scale (0 no effect, 100 complete control)
Summary of the method: as §2

[7] = system: morningglory (Ipomoea coccinea); test: Test B preemergence, morningglory; conditions: scale 0 to 100
Source text: as §1

corn (Zea mays) [8] = test: Test A preemergence, corn; conditions: 0 to 100 scale (0 no effect, 100 complete control)
Summary of the method: as §2

rice (Oryza sativa) = test: Test B flooded paddy test, rice; conditions: Flood, scale 0 to 100
Summary of the method: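 Paddy-water application to 2-leaf plants in pots held under 3 cm of flooding; response is a 0–100 visual control rating against controls after 13 to 15 days, and a dash marks a missing result.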

[9] = system: nightshade (eastern black nightshade, Solanum ptycanthum); test: Test B preemergence, nightshade; conditions: scale 0 to 100
Source text: as §1

soybean (Glycine max) = test: Test B preemergence, soybean; conditions: Preemergence, scale 0 to 100
Summary of the method: (§3)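 Planting into loam soil blended with sand preceded preemergence treatment. After 13 to 15 days under greenhouse conditions, response was judged by eye against controls, 0 meaning no effect and 100 complete control.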

[10] = system: wheat (Triticum aestivum); test: Test A preemergence, wheat; conditions: 0 to 100 scale (0 no effect, 100 complete control)
Summary of the method: as §2

[11] = system: blackgrass (Alopecurus myosuroides); test: Test B preemergence, blackgrass; conditions: scale 0 to 100
Source text: as §1

[12] = system: large crabgrass (Digitaria sanguinalis); test: Test A postemergence, large crabgrass; conditions: 0 to 100 scale (0 no effect, 100 complete control)
Summary of the method: as §2

[13] = system: large crabgrass (Digitaria sanguinalis); test: Test B preemergence, large crabgrass; conditions: scale 0 to 100
Source text: as §1

[14] = system: velvetleaf (Abutilon theophrasti); test: Test B preemergence, velvetleaf; conditions: Preemergence, scale 0 to 100
Summary of the method: as §3

[15] = system: giant foxtail (Setaria faberi); test: Test A postemergence, giant foxtail; conditions: 0 to 100 scale (0 no effect, 100 complete control)
Summary of the method: as §2

[16] = system: lambsquarters (Chenopodium album); test: Test B preemergence, lambsquarters; conditions: scale 0 to 100
Source text: as §1

[17] = system: yellow nutsedge (Cyperus esculentus); test: Test B preemergence, yellow nutsedge; conditions: scale 0 to 100
Source text: as §1

[18] = system: large crabgrass (Digitaria sanguinalis); test: Test A preemergence, large crabgrass; conditions: 0 to 100 scale (0 no effect, 100 complete control)
Summary of the method: as §2

Question: Which results are given for `CC1(C)CC(S(=O)(=O)Cc2c(C(F)(F)Cl)nc3n(c2=O)CCC3)=NO1` [Compound 18]?
Answer: Plant response rating, Bromegrass, Downy ([1]; 16 g ai/ha): 0; Plant response rating, Bromegrass, Downy ([1]; 31 g ai/ha): 0; Plant response rating, Bromegrass, Downy ([1]; 62 g ai/ha): 0; Plant response rating, Bromegrass, Downy ([1]; 125 g ai/ha): 20; Plant response rating, Velvetleaf ([2]; 125 g ai/ha): 30; Plant response rating, Velvetleaf ([2]; 500 g ai/ha): 60; Plant response rating, Corn (corn (Zea mays) [3]; 16 g ai/ha): 0; Plant response rating, Corn (corn (Zea mays) [3]; 31 g ai/ha): 0; Plant response rating, Corn (corn (Zea mays) [3]; 62 g ai/ha): 0; Plant response rating, Corn (corn (Zea mays) [3]; 125 g ai/ha): 0; Plant response rating, Barnyardgrass ([4]; 125 g ai/ha): 80; Plant response rating, Barnyardgrass ([4]; 500 g ai/ha): 80; Plant response rating, Wheat ([5]; 125 g ai/ha): 0; Plant response rating, Wheat ([5]; 500 g ai/ha): 60; Plant response rating, Pigweed ([6]; 125 g ai/ha): 30; Plant response rating, Pigweed ([6]; 500 g ai/ha): 40; Plant response rating, Morningglory ([7]; 16 g ai/ha): 0; Plant response rating, Morningglory ([7]; 31 g ai/ha): 0; Plant response rating, Morningglory ([7]; 62 g ai/ha): 0; Plant response rating, Morningglory ([7]; 125 g ai/ha): 45; Plant response rating, Corn (corn (Zea mays) [8]; 125 g ai/ha): 0; Plant response rating, Corn (corn (Zea mays) [8]; 500 g ai/ha): 0; Plant response rating, Rice (rice (Oryza sativa); 31 g ai/ha): 0; Plant response rating, Rice (rice (Oryza sativa); 62 g ai/ha): 0; Plant response rating, Rice (rice (Oryza sativa); 125 g ai/ha): 0; Plant response rating, Rice (rice (Oryza sativa); 250 g ai/ha): 0; Plant response rating, Nightshade ([9]; 16 g ai/ha): 0; Plant response rating, Nightshade ([9]; 31 g ai/ha): 0; Plant response rating, Nightshade ([9]; 62 g ai/ha): 0; Plant response rating, Nightshade ([9]; 125 g ai/ha): 95; Plant response rating, Soybean (soybean (Glycine max); 16 g ai/ha): 0; Plant response rating, Soybean (soybean (Glycine max); 31 g ai/ha): 0; Plant response rating, Soybean (soybean (Glycine max); 62 g ai/ha): 0; Plant response rating, Soybean (soybean (Glycine max); 125 g ai/ha): 0; Plant response rating, Wheat ([10]; 125 g ai/ha): 0; Plant response rating, Wheat ([10]; 500 g ai/ha): 30; Plant response rating, Blackgrass ([11]; 16 g ai/ha): 0; Plant response rating, Blackgrass ([11]; 31 g ai/ha): 0; Plant response rating, Blackgrass ([11]; 62 g ai/ha): 10; Plant response rating, Blackgrass ([11]; 125 g ai/ha): 98; Plant response rating, Crabgrass, Large ([12]; 125 g ai/ha): 60; Plant response rating, Crabgrass, Large ([12]; 500 g ai/ha): 90; Plant response rating, Crabgrass, Large ([13]; 16 g ai/ha): 0; Plant response rating, Crabgrass, Large ([13]; 31 g ai/ha): 70; Plant response rating, Crabgrass, Large ([13]; 62 g ai/ha): 90; Plant response rating, Crabgrass, Large ([13]; 125 g ai/ha): 100; Plant response rating, Velvetleaf ([14]; 16 g ai/ha): 0; Plant response rating, Velvetleaf ([14]; 31 g ai/ha): 0; Plant response rating, Velvetleaf ([14]; 62 g ai/ha): 0; Plant response rating, Velvetleaf ([14]; 125 g ai/ha): 0; Plant response rating, Foxtail, Giant ([15]; 125 g ai/ha): 70; Plant response rating, Foxtail, Giant ([15]; 500 g ai/ha): 80; Plant response rating, Lambsquarters ([16]; 16 g ai/ha): 0; Plant response rating, Lambsquarters ([16]; 31 g ai/ha): 0; Plant response rating, Lambsquarters ([16]; 62 g ai/ha): 75; Plant response rating, Lambsquarters ([16]; 125 g ai/ha): 85; Plant response rating, Nutsedge, Yellow ([17]; 16 g ai/ha): 0; Plant response rating, Nutsedge, Yellow ([17]; 31 g ai/ha): 0; Plant response rating, Nutsedge, Yellow ([17]; 62 g ai/ha): 20; Plant response rating, Nutsedge, Yellow ([17]; 125 g ai/ha): 45; Plant response rating, Crabgrass, Large ([18]; 125 g ai/ha): 90; Plant response rating, Crabgrass, Large ([18]; 500 g ai/ha): 100

— patent US20100099561A1, “HETEROBICYCLIC ALKYLTHIO-BRIDGED ISOXAZOLINES” (E.I. DU PONT DE NEMOURS AND COMPANY, priority 2008, published 2010)
